Measured values: patent US20070288088A1, “Drug eluting stent with a biodegradable release layer attached with an electro-grafted primer coating” (priority 2006, published 2007)

Legend:
[1] = system: EC's as compared to SMC's; details: EC's versus SMC's; cited from earlier work
[2] = system: cells seeded in 96-well microplate; details: control samples
Experimental: A potential cytotoxicity study of the electro-grafted coatings is conducted in accordance with the standard ISO 10993-5.
The extraction was performed in triplicate with the culture medium (DMEM) containing fetal calf serum, in sterile, closed, chemically inert containers during 96 h at 37° C.
The extract and its dilutions (50% and 10%) were placed on the cells and left in contact for 24 hours, at least. The cytotoxicity was determined by a vital dye, the neutral red.
The means of determination retained were the general morphology of the cell (qualitative evaluation) and the percentage of cell viability (quantitative evaluation) based on that the absorbance obtain by reading at 540 nm, is proportional to the number of living cells (quantitative analysis).
Positive control: the control was performed for each test with a product which provided a reproducible cytotoxic effect under the conditions of the test: a solution of phenol at 3.2 g/l in culture medium (DMEM). The test complied if the percentage of mortality was about 100%.
The test complied if the percentage of cell viability is 100%.

Row | SMILES | Threshold toxic concentration [1] | Death % [2] [%] | Qualitative evaluation (neutral red) [2] | Viability % [2] [%]
1 | CC(=O)O[C@H]1C(=O)[C@@]2(C)[C@H]([C@H](OC(=O)c3ccccc3)[C@]3(O)C[C@H](OC(=O)[C@H](O)[C@@H](NC(=O)c4ccccc4)c4ccccc4)C(C)=C1C3(C)C)[C@]1(OC(C)=O)CO[C@@H]1C[C@@H]2O [Paclitaxel] | comparable or even lower against EC's as compared to SMC's |  |  | 
2 | Oc1ccccc1 [Positive control, phenol] |  | 99 | Cells don't | 1
3 | CO[C@H]1C[C@@H]2CC[C@@H](C)[C@@](O)(O2)C(=O)C(=O)N2CCCC[C@H]2C(=O)O[C@H]([C@H](C)C[C@@H]2CC[C@@H](O)[C@H](OC)C2)CC(=O)[C@H](C)/C=C(\C)[C@@H](O)[C@@H](OC)C(=O)[C@H](C)C[C@H](C)/C=C/C=C/C=C/1C [Sirolimus] | comparable or even lower against EC's as compared to SMC's |  |  | 
